Like-named read-outs stand apart in the source and are kept apart here.
Assays:
PANC-1 cells = experiment: CellTiter-Glo luminescent cell viability assay, PANC-1; conditions: 72 h, mean ± SD, n = 2; for viability at 2.8 µM / viability at 8.3 µM / viability at 25 µM: Homo sapiens, PANC-1, 72 h; for viability at 2.8 µM: read-out: Cell Viability (% of Control) 2.8 µM, PANC-1; for viability at 8.3 µM: read-out: Cell Viability (% of Control) 8.3 µM, PANC-1; for viability at 25 µM: read-out: Cell Viability (% of Control) 25 µM, PANC-1; for Cell Viability (% of Control) 2.8 µM / Cell Viability (% of Control) 8.3 µM / Cell Viability (% of Control) 25 µM: PANC-1
Experimental: Primary fibroblast cultures were prepared from human skin biopsies and maintained in DMEM supplemented with 10% FBS, 1% penicillin-streptomycin, and 1% MEM Non-Essential Amino Acids Solution (Thermo Fisher Scientific). […] All cell lines were cultured in a humidified atmosphere at 37 °C and 5% CO2, passaged twice a week, and the experiments were performed on cells between passage 5 and 15. The cell lines were routinely screened for the absence of mycoplasma infection (DAPI staining).
The effects of the synthesized compounds on cell viability were measured using the CellTiter-Glo® luminescent cell viability assay (Promega, Madison, WI, USA), according to the manufacturer’s instructions. Briefly, cells were seeded onto a flat-bottomed, white 96-well plate (BRANDplates, cat. no.: 781965)), with the following densities: PANC-1: 750 cells/well, Fadu: 2000 cells/well, primary fibroblasts: 2000 cells/well, HEK293T WT: 1000 cells/well, HEK293T CLPP^−/−: 2500 cells/well. After seeding, cells were incubated for a further 48 h before treatment. Cells were treated with the compounds for 72 h. Three concentrations (25.0 µM; 8.3 µM; 2.8 µM) were applied during the initial cell viability screening, while for the determination of dose–response curves, 1.5-fold serially diluted compound concentrations were applied (range: 26 µM–0.7 µM). After treatment, the luminescence signal was recorded using a microplate reader (BioTek Synergy 2 Multi-Mode Reader, BioTek, Winooski, VT, USA).
Data analysis was performed using GraphPad Prism 9.5.0 software (GraphPad Software, San Diego, CA, USA). […] The dose–response curves were generated by four-parameter nonlinear regression, and the IC50 values were determined as the means ± SEM of the best-fit values of 3 independent measurements. The R^2 values were consistently above 0.93, indicating a strong fit of the model to the experimental data (Supplementary S.89). […] Dunnett’s post hoc test was applied to adjust for multiple comparisons, minimizing the likelihood of false positive results. Assumptions for ANOVA, including normality (assessed via QQ plots) and homogeneity of variance (tested using the Brown–Forsythe test), were verified. The following significance levels were applied: * p < 0.05, ** p < 0.01, *** p < 0.001, **** p < 0.0001. […] The tumor selectivity of the compounds was quantitatively characterized by the selectivity index (SI). This parameter was calculated as the ratio of the average best-fit IC50 value for primary fibroblasts and the best-fit IC50 value for the corresponding tumor cells (PANC-1 or Fadu).

Fadu cells = experiment: CellTiter-Glo luminescent cell viability assay, Fadu; conditions: 72 h, 72 h, mean ± SD, n = 2; for viability at 2.8 µM / viability at 8.3 µM / viability at 25 µM: Homo sapiens, FaDu; for viability at 2.8 µM: read-out: Cell Viability (% of Control) 2.8 µM, Fadu; for viability at 8.3 µM: read-out: Cell Viability (% of Control) 8.3 µM, Fadu; for viability at 25 µM: read-out: Cell Viability (% of Control) 25 µM, Fadu; for Cell Viability (% of Control) 2.8 µM / Cell Viability (% of Control) 8.3 µM / Cell Viability (% of Control) 25 µM: Fadu

## O=C1C2=C(CCN(Cc3cccc(-n4cc(-c5ccccc5)nn4)c3)C2)N2CCN=C2N1Cc1ccc(C#CCO)cc1 [3d]
PANC-1 cells; first-set screening
  viability at 2.8 µM: 85 ± 1%
  viability at 8.3 µM: 55 ± 6%
  viability at 25 µM: 46 ± 7%
Fadu cells; first-set screening
  viability at 2.8 µM: 87 ± 1%
  viability at 8.3 µM: 29 ± 2%
  viability at 25 µM: 23 ± 3%

## NCC#Cc1cccc(CN2C(=O)C3=C(CCN(Cc4cccc(-n5cc(-[c-]6cccc6)nn5)c4)C3)N3CCN=C23)c1.[Fe+2].c1cc[cH-]c1 [4a]
PANC-1 cells; first-set screening
  Cell Viability (% of Control) 2.8 µM: 91 ± 4 % of Control
  Cell Viability (% of Control) 8.3 µM: 73 ± 9 % of Control
  Cell Viability (% of Control) 25 µM: 0 ± 0 % of Control
Fadu cells; first-set screening
  Cell Viability (% of Control) 2.8 µM: 102 ± 1 % of Control
  Cell Viability (% of Control) 8.3 µM: 77 ± 3 % of Control
  Cell Viability (% of Control) 25 µM: 0 ± 0 % of Control

## O=C1C2=C(CCN(Cc3ccc(-n4cc(-c5ccccc5)nn4)cc3)C2)N2CCN=C2N1Cc1ccc(C#CCO)cc1 [1c]
PANC-1 cells; first-set screening
  viability at 2.8 µM: 95 ± 3%
  viability at 8.3 µM: 87 ± 2%
  viability at 25 µM: 88 ± 6%
Fadu cells; first-set screening
  viability at 2.8 µM: 79%
  viability at 8.3 µM: 71%
  viability at 25 µM: 64 ± 2%

## Nc1cccc(-c2cn(-c3ccc(CN4CCC5=C(C4)C(=O)N(Cc4ccc(C#CCO)cc4)C4=NCCN45)cc3)nn2)c1 [1d]
PANC-1 cells; first-set screening
  viability at 2.8 µM: 99 ± 3%
  viability at 8.3 µM: 101 ± 3%
  viability at 25 µM: 100 ± 5%
Fadu cells; first-set screening
  viability at 2.8 µM: 99 ± 9%
  viability at 8.3 µM: 96 ± 7%
  viability at 25 µM: 84 ± 4%

## O=C1C2=C(CCN(Cc3ccc(-n4cc(-c5ccccc5)nn4)cc3)C2)N2CCN=C2N1Cc1ccc(F)cc1 [16f]
PANC-1 cells; first-set screening
  viability at 2.8 µM: 81 ± 3%
  viability at 8.3 µM: 68 ± 4%
  viability at 25 µM: 60 ± 1%
Fadu cells; first-set screening
  viability at 2.8 µM: 100 ± 1%
  viability at 8.3 µM: 94 ± 1%
  viability at 25 µM: 77 ± 4%

## NCc1cccc(CN2C(=O)C3=C(CCN(Cc4ccc(-n5cc(-[c-]6cccc6)nn5)cc4)C3)N3CCN=C23)c1.[Fe+2].c1cc[cH-]c1 [37a]
PANC-1 cells; second-set screening
  Cell Viability (% of Control) 2.8 µM: 118 ± 4 % of Control
  Cell Viability (% of Control) 8.3 µM: 123 ± 5 % of Control
  Cell Viability (% of Control) 25 µM: 16 ± 8 % of Control
Fadu cells; second-set screening
  Cell Viability (% of Control) 2.8 µM: 106 ± 10 % of Control
  Cell Viability (% of Control) 8.3 µM: 70 ± 20 % of Control
  Cell Viability (% of Control) 25 µM: 0 ± 0 % of Control

## NCC#Cc1cccc(CN2C(=O)C3=C(CCN(Cc4ccc(C(=O)N[c-]5cccc5)cc4)C3)N3CCN=C23)c1.[Fe+2].c1cc[cH-]c1 [33a]
PANC-1 cells; second-set screening
  Cell Viability (% of Control) 2.8 µM: 102 ± 9 % of Control
  Cell Viability (% of Control) 8.3 µM: 107 ± 9 % of Control
  Cell Viability (% of Control) 25 µM: 4 ± 5 % of Control
Fadu cells; second-set screening
  Cell Viability (% of Control) 2.8 µM: 99 ± 2 % of Control
  Cell Viability (% of Control) 8.3 µM: 93 ± 2 % of Control
  Cell Viability (% of Control) 25 µM: 9 ± 8 % of Control

## O=C1C2=C(CCN(Cc3ccc(-n4cc(-[c-]5cccc5)nn4)cc3)C2)N2CCN=C2N1Cc1ccc(C#CCO)cc1.[Fe+2].c1cc[cH-]c1 [1b]
PANC-1 cells; first-set screening
  Cell Viability (% of Control) 2.8 µM: 92 ± 0 % of Control
  Cell Viability (% of Control) 8.3 µM: 93 ± 3 % of Control
  Cell Viability (% of Control) 25 µM: 95 ± 2 % of Control
Fadu cells; first-set screening
  Cell Viability (% of Control) 2.8 µM: 88 ± 4 % of Control
  Cell Viability (% of Control) 8.3 µM: 83 ± 0 % of Control
  Cell Viability (% of Control) 25 µM: 68 ± 3 % of Control

## NCc1cccc(CN2C(=O)C3=C(CCN(Cc4ccc(-n5cc(-c6ccccc6)nn5)cc4)C3)N3CCN=C23)c1 [37b]
PANC-1 cells; second-set screening
  viability at 2.8 µM: 110 ± 5%
  viability at 8.3 µM: 113 ± 3%
  viability at 25 µM: 5 ± 6%
Fadu cells; second-set screening
  viability at 2.8 µM: 108 ± 7%
  viability at 8.3 µM: 91 ± 12%
  viability at 25 µM: 13 ± 6%

## NCC#Cc1cccc(CN2C(=O)C3=C(CCN(Cc4ccc(-n5cc(-c6cc(F)cc(F)c6)nn5)cc4)C3)N3CCN=C23)c1 [36c]
PANC-1 cells; second-set screening
  viability at 2.8 µM: 111 ± 8%
  viability at 8.3 µM: 0%
  viability at 25 µM: 0%
Fadu cells; second-set screening
  viability at 2.8 µM: 111 ± 10%
  viability at 8.3 µM: 5 ± 5%
  viability at 25 µM: 0%
